Laboratory results as given in patent publication US20130035326A1 (AMBIT BIOSCIENCES CORPORATION, priority 2009, published 2013).

Tests used:
MV4-11 cells = assay: MV4-11 cell proliferation assay (Alamar Blue); assay type: cell-based; conditions: Homo sapiens, MV4-11, 72 h, 3 days incubation
Protocol: The compounds disclosed herein were tested in an MV4-11 cell proliferation assay to determine their cellular potency against Flt3. MV4-11 cells carry ITD mutation within juxtamembrane domain of Flt3 kinase which renders the kinase constitutively active. […] This assay measures the potency of compounds as Flt3 inhibitors by measuring the reduction of Alamar Blue reagent by viable cells.
MV4-11 cells were grown in an incubator at 37° C. under 5% CO2 in Iscove's media (Celgro) with 10% FBS. The cell density was kept between 1e5 and 8e5 cells/mL.
On day one of the experiment, cells were harvested and spun at 500 g for 5 min at 4° C., the supernatant aspirated and the cells resuspended in Iscove's media with 0.5% FBS. Cell density was maintained at 7.5e5 to achieve maximum viability of the cells. The resuspended cells were incubated at 37° C. in 5% CO2 overnight.
On day two of the experiment, cells were diluted to 6.4e5/mL with Iscove's media with 0.5% FBS. 100 μL of the cell suspension (64,000 cells) were aliquoted into each well of a 96-well TC-treated plate. Compounds were added at 9 different concentrations, with half-log intervals alongside a control reference compound serving as a positive control. Final DMSO concentration was kept at 0.5% and final volume at 200 μL. The cells were then incubated at 37° C. under 5% CO2 for 3 days.
On day five of the experiment, 40 μL of Alamar Blue reagent was added to each well and the mixture was allowed to incubate for 3 hours. Alamar Blue fluorescence was measured using SoftMax Pro software at 560 nm (excitation) and 590 nm (emission). IC50s were generated as an average of duplicates and represents the concentration of test compound that achieves 50% inhibition of cellular proliferation compared to negative control.

CSF-1R kinase = biological target: T1, CSF-1R kinase (Homo sapiens, UniProt P07333); assay: Competition binding assay, CSF-1R Kd
T1 construct: made in house; host or cells: T7 phage display or HEK-293 cells
T1 sequence (P07333 20-972): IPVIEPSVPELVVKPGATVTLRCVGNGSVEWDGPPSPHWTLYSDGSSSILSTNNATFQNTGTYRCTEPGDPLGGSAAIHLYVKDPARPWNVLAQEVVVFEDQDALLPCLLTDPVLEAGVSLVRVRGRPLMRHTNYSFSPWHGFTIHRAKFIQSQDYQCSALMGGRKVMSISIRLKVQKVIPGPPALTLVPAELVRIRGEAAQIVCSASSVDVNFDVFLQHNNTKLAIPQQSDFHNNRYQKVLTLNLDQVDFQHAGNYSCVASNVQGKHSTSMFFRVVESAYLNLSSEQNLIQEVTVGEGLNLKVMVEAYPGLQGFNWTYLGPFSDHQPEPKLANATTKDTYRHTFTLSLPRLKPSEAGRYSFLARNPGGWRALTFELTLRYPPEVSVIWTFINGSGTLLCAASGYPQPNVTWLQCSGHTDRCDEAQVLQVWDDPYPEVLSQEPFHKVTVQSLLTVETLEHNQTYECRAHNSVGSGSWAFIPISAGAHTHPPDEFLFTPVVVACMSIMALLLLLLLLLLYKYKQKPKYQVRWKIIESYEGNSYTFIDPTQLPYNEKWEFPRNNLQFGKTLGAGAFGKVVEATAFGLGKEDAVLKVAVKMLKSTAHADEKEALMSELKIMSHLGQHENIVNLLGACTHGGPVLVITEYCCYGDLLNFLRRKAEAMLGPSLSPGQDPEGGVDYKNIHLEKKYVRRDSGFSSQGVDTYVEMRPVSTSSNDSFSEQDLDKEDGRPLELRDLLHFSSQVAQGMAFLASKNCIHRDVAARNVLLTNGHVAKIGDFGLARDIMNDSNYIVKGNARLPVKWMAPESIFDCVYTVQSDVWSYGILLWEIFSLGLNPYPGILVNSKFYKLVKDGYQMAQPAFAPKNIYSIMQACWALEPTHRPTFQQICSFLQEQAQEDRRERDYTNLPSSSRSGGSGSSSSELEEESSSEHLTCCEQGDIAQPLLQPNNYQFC
Protocol: (§1) In certain embodiments, competition binding assays were performed as described in Fabian et al., Nature Biotechnology 2005, 23,329-336.
(§2) Competition binding assays used herein were developed, validated and performed as described in Fabian et al., Nature Biotechnology 2005, 23,329-336. Kinases were produced as fusions to T7 phage (See, Fabian et al. or WO04/015142) or alternatively, the kinases were expressed in HEK-293 cells and subsequently tagged with DNA for PCR detection (See, WO08/005,310). For the binding assays, streptavidin-coated magnetic beads were treated with biotinylated affinity ligands for 30 min at room temperature to generate affinity resins. The liganded beads were blocked with excess biotin and washed with blocking buffer (SeaBlock (Pierce), 1% BSA, 0.05% Tween 20, 1 mM DTT) to remove unbound ligand and to reduce non-specific binding. Binding reactions were assembled by combining kinase, liganded affinity beads, and test compounds in 1× binding buffer (20% SeaBlock, 0.17×PBS, 0.05% Tween 20, 6 mM DTT). Test compounds were prepared as 100× stocks in DMSO and diluted into the aqueous environment. Kds were determined using an eleven point threefold serial dilutions. DMSO or control compounds were was added to control assays lacking a test compound. Primary screen assays were performed in polypropylene 384-well plates in a final volume of 20-40 μL, while Kd determinations were performed in polystyrene 96-well plates in a final volume of 135 μL. The assay plates were incubated at room temperature with shaking for 1 hour to allow the binding reactions to reach equilibrium, and the affinity beads were washed extensively with wash buffer (1×PBS, 0.05% Tween 20) to remove unbound protein. The beads were then resuspended in elution buffer (1×PBS, 0.05% Tween 20, 0.5 μM non-biotinylated affinity ligand) and incubated at room temperature with shaking for 30 min. The kinase concentration in the eluates was measured by quantitative PCR.

FLT3 kinase = biological target: T2, FLT3 kinase (Homo sapiens, UniProt P36888); assay: Competition binding assay, FLT3 Kd
T2 construct: made in house; host or cells: T7 phage display or HEK-293 cells
T2 sequence (P36888 27-993): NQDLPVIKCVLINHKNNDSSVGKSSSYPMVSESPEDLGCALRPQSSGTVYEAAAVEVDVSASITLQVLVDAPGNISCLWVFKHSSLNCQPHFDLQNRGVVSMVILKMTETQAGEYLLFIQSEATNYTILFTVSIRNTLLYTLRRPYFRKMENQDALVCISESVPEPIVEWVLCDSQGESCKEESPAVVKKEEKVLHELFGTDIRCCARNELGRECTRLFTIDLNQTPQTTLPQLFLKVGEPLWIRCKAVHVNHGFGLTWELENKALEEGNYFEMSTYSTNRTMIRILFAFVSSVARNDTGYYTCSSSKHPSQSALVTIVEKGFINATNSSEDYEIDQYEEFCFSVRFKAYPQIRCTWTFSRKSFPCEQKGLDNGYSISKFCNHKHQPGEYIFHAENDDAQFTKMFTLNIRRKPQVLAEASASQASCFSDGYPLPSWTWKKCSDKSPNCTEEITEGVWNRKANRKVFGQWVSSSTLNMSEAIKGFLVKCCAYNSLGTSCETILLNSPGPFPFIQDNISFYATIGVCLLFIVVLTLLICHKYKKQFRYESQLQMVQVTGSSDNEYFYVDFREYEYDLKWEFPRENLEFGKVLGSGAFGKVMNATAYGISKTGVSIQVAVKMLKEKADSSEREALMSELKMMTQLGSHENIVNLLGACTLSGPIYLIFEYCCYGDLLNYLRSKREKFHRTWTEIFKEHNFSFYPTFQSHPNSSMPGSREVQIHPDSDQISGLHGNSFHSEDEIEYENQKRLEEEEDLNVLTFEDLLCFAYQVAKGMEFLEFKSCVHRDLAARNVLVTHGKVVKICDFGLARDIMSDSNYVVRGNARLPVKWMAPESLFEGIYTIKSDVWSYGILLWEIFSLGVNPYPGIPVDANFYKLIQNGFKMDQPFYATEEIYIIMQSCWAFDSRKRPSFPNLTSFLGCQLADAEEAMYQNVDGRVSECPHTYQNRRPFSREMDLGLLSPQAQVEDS
Protocol: as §1, §2

KIT kinase = biological target: T3, KIT kinase (Homo sapiens, UniProt P10721); assay: Competition binding assay, KIT Kd
T3 construct: made in house; host or cells: T7 phage display or HEK-293 cells
T3 sequence (P10721 26-976): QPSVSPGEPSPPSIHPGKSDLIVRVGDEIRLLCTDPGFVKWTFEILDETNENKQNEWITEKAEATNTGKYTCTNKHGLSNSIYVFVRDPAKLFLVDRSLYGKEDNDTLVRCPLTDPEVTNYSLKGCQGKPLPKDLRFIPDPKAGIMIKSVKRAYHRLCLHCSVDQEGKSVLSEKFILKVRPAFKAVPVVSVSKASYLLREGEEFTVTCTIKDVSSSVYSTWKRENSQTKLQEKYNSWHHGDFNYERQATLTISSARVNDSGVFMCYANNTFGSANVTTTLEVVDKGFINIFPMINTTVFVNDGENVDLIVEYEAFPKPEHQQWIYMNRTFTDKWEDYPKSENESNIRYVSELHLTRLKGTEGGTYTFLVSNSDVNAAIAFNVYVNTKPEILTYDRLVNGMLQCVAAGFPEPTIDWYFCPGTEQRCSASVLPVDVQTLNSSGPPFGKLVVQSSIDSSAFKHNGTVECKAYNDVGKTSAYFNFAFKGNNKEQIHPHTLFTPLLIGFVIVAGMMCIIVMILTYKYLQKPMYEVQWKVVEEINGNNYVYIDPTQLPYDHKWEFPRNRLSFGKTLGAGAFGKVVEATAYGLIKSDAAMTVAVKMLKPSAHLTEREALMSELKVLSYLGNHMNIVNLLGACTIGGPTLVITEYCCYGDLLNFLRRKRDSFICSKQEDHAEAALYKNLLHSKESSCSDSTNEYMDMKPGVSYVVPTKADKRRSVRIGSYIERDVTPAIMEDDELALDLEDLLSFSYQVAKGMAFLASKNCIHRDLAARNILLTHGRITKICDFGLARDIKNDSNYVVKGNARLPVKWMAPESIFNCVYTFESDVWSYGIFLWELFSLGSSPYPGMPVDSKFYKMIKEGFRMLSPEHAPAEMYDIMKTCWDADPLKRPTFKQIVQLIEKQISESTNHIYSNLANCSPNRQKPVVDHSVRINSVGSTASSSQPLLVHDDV
Protocol: as §1, §2

Row | IC50 (MV4-11 cells) | Kd (CSF-1R kinase) | Kd (FLT3 kinase) | Kd (KIT kinase) | Structure (SMILES)
1 | 10 to 100 nM | ≤ 10 nM | 1 to 10 nM | 1 to 10 nM | CC(C)(CO)c1cc(NC(=O)Nc2ccc(-c3ccc(N)nc3)cc2)on1 [Example 81, 5-(4-(3-(3-(1-hydroxy-2-methylpropan-2-yl)isoxazol-5-yl)ureido)phenyl)pyridin-2-aminium methanesulfonate]
2 | 100 to 500 nM | 10 to 100 nM | 1 to 10 nM | 1 to 10 nM | Cn1nc(C(C)(C)CO)cc1NC(=O)Nc1ccc(-c2ccc(N)nc2)cc1 [Example 82, 5-(4-(3-(3-(1-hydroxy-2-methylpropan-2-yl)-1-methyl-1H-pyrazol-5-yl)ureido)phenyl)pyridin-2-aminium methanesulfonate]
3 | 10 to 100 nM | ≤ 10 nM | ≤ 1 nM | 1 to 10 nM | CC(C)(CO)c1cc(NC(=O)Cc2ccc(-c3ccc(N)nc3)cc2)on1 [Example 83, 5-(4-(2-((3-(1-hydroxy-2-methylpropan-2-yl)isoxazol-5-yl)amino)-2-oxoethyl)phenyl)pyridin-2-aminium methanesulfonate]
4 | ≤ 1 nM | ≤ 10 nM | ≤ 1 nM | 1 to 10 nM | CC(C)(C)c1cc(NC(=O)Cc2ccc(-c3ccc(N)nc3)cc2)on1 [Example 84, 5-(4-(2-(3-tert-butylisoxazol-5-ylamino)-2-oxoethyl)phenyl)pyridin-2-aminium methanesulfonate]
5 | ≤ 1 nM | ≤ 10 nM | ≤ 1 nM | 1 to 10 nM | Cc1cc(-c2ccc(CC(=O)Nc3cc(C(C)(C)C)on3)cc2)cnc1N [Example 85, 5-(4-(2-(5-tert-butylisoxazol-3-ylamino)-2-oxoethyl)phenyl)-3-methylpyridin-2-aminium methanesulfonate]
6 | 10 to 100 nM | 10 to 100 nM | ≤ 1 nM | 1 to 10 nM | Cc1cc(N)ncc1-c1ccc(CC(=O)Nc2cc(C(C)(C)C)on2)cc1 [Example 86, 5-(4-(2-(5-tert-butylisoxazol-3-ylamino)-2-oxoethyl)phenyl)-4-methylpyridin-2-aminium methanesulfonate]

The remaining lines, values behind:

Row | Structure (SMILES) | IC50 (MV4-11 cells) | Kd (CSF-1R kinase) | Kd (FLT3 kinase) | Kd (KIT kinase)
7 | CC(C)(F)c1cc(NC(=O)Nc2ccc(-c3ccc(N)nc3)cn2)on1 [Example 42, 1-(6′-amino-3,3′-bipyridin-6-yl)-3-(3-(2-fluoropropan-2-yl)isoxazol-5-yl)urea] | 10 to 100 nM | ≤ 10 nM | 1 to 10 nM | ≤ 1 nM
8 | CC(C)(c1cc(NC(=O)Nc2ccc(-c3ccc(N)nc3)cn2)no1)C(F)(F)F [Example 43, 1-(6′-amino-3,3′-bipyridin-6-yl)-3-(5-(1,1,1-trifluoro-2-methylpropan-2-yl)isoxazol-3-yl)urea] | 1 to 10 nM | ≤ 10 nM | ≤ 1 nM | ≤ 1 nM
9 | COc1cc(-c2ccc(N)nc2)ccc1NC(=O)Nc1cc(C(C)(CF)CF)on1 [Example 68, 5-(4-(3-(5-(1,3-difluoro-2-methylpropan-2-yl)isoxazol-3-yl)ureido)-3-methoxyphenyl)pyridin-2-aminium methanesulfonate] | 10 to 100 nM | ≤ 10 nM | 1 to 10 nM | 1 to 10 nM
10 | COc1cc(-c2ccc(N)nc2)ccc1NC(=O)Nc1cc(C(C)(C)C)on1 [Example 69, 5-(4-(3-(5-tert-butylisoxazol-3-yl)ureido)-3-methoxyphenyl)pyridin-2-aminium methanesulfonate] | 10 to 100 nM | ≤ 10 nM | 1 to 10 nM | ≤ 1 nM
11 | CC(C)(C)c1cc(NC(=O)Nc2ccc(-c3ccc(N)nc3)cc2)on1 [Example 70, 5-(4-(3-(3-tert-butylisoxazol-5-yl)ureido)phenyl)pyridin-2-aminium methanesulfonate] | ≤ 1 nM | ≤ 10 nM | 1 to 10 nM | 1 to 10 nM
12 | CC(C)(c1cc(NC(=O)Cc2ccc(-c3ccc(N)nc3)cc2)no1)C(F)(F)F [Example 72, 5-(4-(2-oxo-2-(5-(1,1,1-trifluoro-2-methylpropan-2-yl)isoxazol-3-ylamino)ethyl)phenyl)pyridin-2-aminium acetate] | ≤ 1 nM | ≤ 10 nM | ≤ 1 nM | 1 to 10 nM
13 | CC(C)(C)c1cc(NC(=O)Cc2ccc(-c3cnc(N)nc3)cc2)no1 [Example 74, 2-(4-(2-aminopyrimidin-5-yl)phenyl)-N-(5-tert-butylisoxazol-3-yl)acetamide] | ≤ 1 nM | ≤ 10 nM | ≤ 1 nM | 1 to 10 nM
14 | CC(C)(C)c1cc(NC(=O)Cc2ccc(-c3cnc(NCCN4CCOCC4)nc3)cc2)no1 [Example 75, N-(5-tert-butylisoxazol-3-yl)-2-(4-(2-(2-morpholinoethylamino)pyrimidin-5-yl)phenyl)acetamide] | ≤ 1 nM | ≤ 10 nM | ≤ 1 nM | 1 to 10 nM
15 | CC(C)(C)c1cc(NC(=O)Cc2ccc(-c3ccc(N)nc3)cn2)no1 [Example 76, 2-(6′-amino-3,3′-bipyridin-6-yl)-N-(5-tert-butylisoxazol-3-yl)acetamide] | 1 to 10 nM | ≤ 10 nM | ≤ 1 nM | ≤ 1 nM
16 | CC(C)(C)c1cc(NC(=O)Cc2ccc(-c3cnc(N)nc3)cn2)no1 [Example 77, 2-(5-(2-aminopyrimidin-5-yl)pyridin-2-yl)-N-(5-tert-butylisoxazol-3-yl)acetamide] | 1 to 10 nM | ≤ 10 nM | ≤ 1 nM | 1 to 10 nM
17 | CC(C)(C)c1cc(NC(=O)Cc2ccc(-c3cnc(N)nc3)cc2F)no1 [Example 79, 2-(4-(2-aminopyrimidin-5-yl)-2-fluorophenyl)-N-(5-tert-butylisoxazol-3-yl)acetamide] | ≤ 1 nM | ≤ 10 nM | ≤ 1 nM | 1 to 10 nM
18 | CC(C)(CO)c1cc(NC(=O)Nc2ccc(-c3ccc(N)nc3)cc2)no1 [Example 80, 1-(4-(6-aminopyridin-3-yl)phenyl)-3-(5-(1-hydroxy-2-methylpropan-2-yl)isoxazol-3-yl)urea] | 1 to 10 nM | ≤ 10 nM | ≤ 1 nM | ≤ 1 nM
